Numbered stars: 1 amine (or outer) side, 2 acyl side, 3 side chain; on linkers, the order of the positions; unused ones are H or OH. Bridge positions count the residues as written; N and C are the ends. Square brackets hold non-standard residues; d marks the D form. Peptide text beside a SMILES is read from it. * marks the point of attachment. X2 = O=C(O)CN1CCN(CC(=O)O)CCN(CC(=O)NCCCOCCOCCOCCCN*)CCN(CC(=O)O)CC1; mXylylene = c1cc(C[*:1])cc(C[*:2])c1; Suc = O=C(CCC(=O)[*:2])[*:1]; 4Amb = NCc1ccc(C(=O)O)cc1; Hexanoyl = CCCCCC(=O)*; CO = O=C([*:1])[*:2]; NHPentyl = CCCCCN*
How the values were obtained:
[1] = target: T1, Human recombinant FAP (Homo sapiens, UniProt Q12884); test: FRET-based FAP protease activity assay; format: biochemical; set-up: purchased R&D systems 3715-SE; details: pIC50 Category (Activity), FRET substrate, 37° C.
T1 sequence (Q12884 1-760): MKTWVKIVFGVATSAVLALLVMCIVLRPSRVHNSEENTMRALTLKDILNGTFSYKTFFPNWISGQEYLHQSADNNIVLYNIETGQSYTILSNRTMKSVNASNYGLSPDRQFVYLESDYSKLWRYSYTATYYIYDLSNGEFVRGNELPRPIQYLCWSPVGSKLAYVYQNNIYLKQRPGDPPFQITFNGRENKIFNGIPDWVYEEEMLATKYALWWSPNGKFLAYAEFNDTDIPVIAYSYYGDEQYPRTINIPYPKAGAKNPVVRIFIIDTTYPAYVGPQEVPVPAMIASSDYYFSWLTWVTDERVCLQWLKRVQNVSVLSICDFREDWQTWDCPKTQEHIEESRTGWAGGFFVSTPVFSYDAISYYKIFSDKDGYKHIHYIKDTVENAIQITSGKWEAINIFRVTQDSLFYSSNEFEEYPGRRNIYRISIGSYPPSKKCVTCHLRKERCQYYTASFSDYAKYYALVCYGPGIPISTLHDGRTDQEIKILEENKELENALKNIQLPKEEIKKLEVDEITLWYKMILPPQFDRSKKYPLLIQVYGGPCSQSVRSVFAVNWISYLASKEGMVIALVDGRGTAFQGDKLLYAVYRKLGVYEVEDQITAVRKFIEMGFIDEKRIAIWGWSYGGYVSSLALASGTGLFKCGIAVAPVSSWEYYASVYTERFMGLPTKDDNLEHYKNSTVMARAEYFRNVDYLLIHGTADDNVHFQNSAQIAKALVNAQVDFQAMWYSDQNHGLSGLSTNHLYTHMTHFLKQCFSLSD

[2] = target: T2, FAP-expressing human WI-38 fibroblasts (Homo sapiens, UniProt Q12884); test: Competitive FACS binding assay; details: pIC50 Category (FACS), competition with 3 nM Cy5-labeled compound, 4° C., 1 hour
T2 construct: FAP-expressing human WI-38 fibroblasts (ECACC) were cultured in EMEM; host or cells: WI-38 human fibroblasts
T2 sequence (Q12884 1-760): T1 sequence (Q12884 1-760)
Description: Cells were analyzed in an Attune NxT flow cytometer. […]

Structure (SMILES) | IC50 ([1]; recombinant human FAP) | IC50 ([2]; WI-38 fibroblasts) | IC50 [1] | IC50 [2]
CC(C)C[C@H](NC(=O)CCC(=O)NCCCOCCOCCOCCOCCCNC(=O)CN1CCN(CC(=O)O)CCN(CC(=O)O)CCN(CC(=O)O)CC1)C(=O)N[C@H]1CSCc2cccc(c2)CSC[C@@H](C(=O)N[C@@H](CC(=O)O)C(=O)N[C@@H](Cc2c[nH]cn2)C(=O)N[C@@H](Cc2ccccc2)C(=O)N[C@@H](CCCNC(=N)N)C(=O)N[C@@H](CC(=O)O)C(N)=O)NC(=O)[C@H](Cc2ccccc2)NC(=O)[C@H](CCC(=O)O)NC(=O)[C@H]2NC(=O)[C@@H]3C(CCN3C(=O)[C@@H]3CCCN3C1=O)[C@H]2O [3BP-3172, DOTA-Ttds-Leu-[Cys(3MeBn)-Pro-Pro-Thr-Glu-Phe-Cys]-Asp-His-Phe-Arg-Asp-NH2] | < 10 nM | < 10 nM | – | –
CCCCCNC(=O)N[C@H]1CSCc2cccc(c2)CSC[C@@H](C(=O)N[C@@H](CC(=O)O)C(N)=O)NC(=O)[C@H](Cc2ccccc2)NC(=O)[C@H](CCC(N)=O)NC(=O)[C@H]([C@@H](C)O)NC(=O)[C@@H]2CCCN2C(=O)[C@@H]2CCCN2C1=O [3BP-3425, PentylNH-urea-[Cys(3MeBn)-Pro-Pro-Thr-Gln-Phe-Cys]-Asp-NH2] ({NHPentyl-CO}-CPPTQFCD-NH2; linker 1-7 via mXylylene) | < 10 nM | 10 to 79.4 nM | – | –
CSCC[C@H](NC(C)=O)C(=O)N[C@H]1CSCc2cccc(c2)CSC[C@@H](C(=O)N[C@@H](CC(=O)O)C(=O)N[C@@H](Cc2c[nH]cn2)C(=O)N[C@@H](Cc2ccccc2)C(=O)N[C@@H](CCCNC(=N)N)C(N)=O)NC(=O)[C@H](Cc2ccccc2)NC(=O)[C@H](CCC(=O)O)NC(=O)[C@H]([C@@H](C)O)NC(=O)[C@@H]2CCCN2C(=O)[C@@H]2CCCN2C1=O [3BP-3200, Ac-Met-[Cys(3MeBn)-Pro-Pro-Thr-Glu-Phe-Cys]-Asp-His-Phe-Arg-NH2] (Ac-MCPPTEFCDHFR-NH2; linker 2-8 via mXylylene) | < 10 nM | < 10 nM | – | –
C[C@@H](O)[C@@H]1NC(=O)[C@@H]2CCCN2C(=O)[C@@H]2CCCN2C(=O)[C@@H](NC(=O)[C@H](CCC(=O)O)NC(=O)CCC(=O)NCCCOCCOCCOCCCNC(=O)CN2CCN(CC(=O)O)CCN(CC(=O)O)CCN(CC(=O)O)CC2)CSCc2cccc(c2)CSC[C@@H](C(=O)N[C@@H](CC(=O)O)C(=O)N[C@@H](Cc2c[nH]cn2)C(=O)N[C@@H](Cc2ccccc2)C(=O)N[C@@H](CCCNC(=N)N)C(=O)N[C@@H](CC(=O)O)C(N)=O)NC(=O)[C@H](Cc2ccccc2)NC(=O)[C@H](CCC(=O)O)NC1=O [3BP-3173, DOTA-Ttds-Glu-[Cys(3MeBn)-Pro-Pro-Thr-Glu-Phe-Cys]-Asp-His-Phe-Arg-Asp-NH2] ({X2-Suc}-ECPPTEFCDHFRD-NH2; linker 2-8 via mXylylene) | 10 to 79.4 nM | 10 to 79.4 nM | – | –
CCCC(NC(=O)CCC(=O)NCCCOCCOCCOCCCNC(=O)CN1CCN(CC(=O)O)CCN(CC(=O)O)CCN(CC(=O)O)CC1)C(=O)N[C@H]1CSCc2cccc(c2)CSC[C@@H](C(=O)N[C@@H](CC(=O)O)C(=O)NCCCOCCOCCOCCCNC(=O)CCC(=O)N[C@@H](CCCCNC(=O)CN2CCN(CC(=O)O)CCN(CC(=O)O)CCN(CC(=O)O)CC2)C(N)=O)NC(=O)[C@H](Cc2ccccc2)NC(=O)[C@H](CCC(N)=O)NC(=O)[C@H]([C@@H](C)O)NC(=O)[C@@H]2CCCN2C(=O)[C@@H]2CCCN2C1=O (stereo partly drawn) [3BP-4393, DOTA-Ttds-Nle-[Cys(3MeBn)-Pro-Pro-Thr-Gln-Phe-Cys]-Asp-Ttds-Lys(DOTA)-NH2] | – | – | < 10 nM | < 10 nM
CSCC[C@H](NC(C)=O)C(=O)N[C@H]1CSCc2cccc(c2)CSC[C@@H](C(=O)N[C@@H](CC(=O)O)C(=O)N[C@@H](Cc2c[nH]cn2)C(=O)N[C@@H](Cc2ccccc2)C(=O)N[C@@H](CCCNC(=N)N)C(=O)N[C@H](CC(=O)O)C(N)=O)NC(=O)[C@H](Cc2ccccc2)NC(=O)[C@H](CCC(=O)O)NC(=O)[C@H]([C@@H](C)O)NC(=O)[C@@H]2CCCN2C(=O)[C@@H]2CCCN2C1=O [3BP-3213, Ac-Met-[Cys(3MeBn)-Pro-Pro-Thr-Glu-Phe-Cys]-Asp-His-Phe-Arg-asp-NH2] (Ac-MCPPTEFCDHFR[dD]-NH2; linker 2-8 via mXylylene) | < 10 nM | < 10 nM | – | –
CCCCCC(=O)N[C@H]1CSCc2cc(CSCCNC(=O)CN3CCN4CCN(CC(=O)O)CCN(CC3)CC(=O)[O][Cu][O]C(=O)C4)cc(c2)CSC[C@@H](C(=O)O)NC(=O)[C@H](Cc2ccccc2)NC(=O)[C@H](CCC(N)=O)NC(=O)[C@H]([C@@H](C)O)NC(=O)[C@@H]2CCCN2C(=O)[C@@H]2CCCN2C1 [3BP-4293, Copper(II)-Complex of Hex-[Cys(tMeBn(DOTA-AET))-Pro-Pro-Thr-Gln-Phe-Cys]-OH] | – | – | < 10 nM | < 10 nM
CCCCCC(=O)N[C@H]1CSCc2cc(CSCCNC(=O)CCC(=O)NCCCOCCOCCOCCCNC(=O)CCP(=O)(O)CN3CCN(CP(=O)(O)CO)CCN(CP(=O)(O)CO)CC3)cc(c2)CSC[C@@H](C(=O)O)NC(=O)[C@H](Cc2ccccc2)NC(=O)[C@H](CCC(N)=O)NC(=O)[C@H]([C@@H](C)O)NC(=O)[C@@H]2CCCN2C(=O)[C@@H]2CCCN2C1=O [3BP-4385, Hex-[Cys(tMeBn(NOPO-Ttds-AET))-Pro-Pro-Thr-Gln-Phe-Cys]-OH] | – | – | 10 to 79.4 nM | 10 to 79.4 nM
C[C@@H](O)[C@@H]1NC(=O)[C@@H]2CCCN2C(=O)[C@@H]2CCCN2C(=O)[C@@H](NC(=O)[C@H](Cc2ccccc2)NC(=O)CCC(=O)NCCCOCCOCCOCCCNC(=O)CN2CCN(CC(=O)O)CCN(CC(=O)O)CCN(CC(=O)O)CC2)CSCc2cccc(c2)CSC[C@@H](C(=O)N[C@@H](CC(=O)O)C(=O)N[C@@H](Cc2c[nH]cn2)C(=O)N[C@@H](Cc2ccccc2)C(=O)N[C@@H](CCCNC(=N)N)C(=O)N[C@@H](CC(=O)O)C(N)=O)NC(=O)[C@H](Cc2ccccc2)NC(=O)[C@H](CCC(=O)O)NC1=O [3BP-3171, DOTA-Ttds-Phe-[Cys(3MeBn)-Pro-Pro-Thr-Glu-Phe-Cys]-Asp-His-Phe-Arg-Asp-NH2] ({X2-Suc}-FCPPTEFCDHFRD-NH2; linker 2-8 via mXylylene) | 10 to 79.4 nM | 10 to 79.4 nM | – | –
CCCCCC(=O)N[C@H]1CSCc2cc(CSCCNC(=O)CCC(=O)NCCCOCCOCCOCCCNC(=O)CCC(=O)NCCCOCCOCCOCCCNC(=O)CCC(=O)NCCCOCCOCCOCCCNC(=O)CCCNCCCOCCOCCOCCCNC(=O)CCCC[C@H]3SC[C@H]4NC(=O)N[C@H]43)cc(c2)CSC[C@@H](C(=O)O)NC(=O)[C@H](Cc2ccccc2)NC(=O)[C@H](CCC(N)=O)NC(=O)[C@H]([C@@H](C)O)NC(=O)[C@@H]2CCCN2C(=O)[C@@H]2CCCN2C1=O [3BP-4170, Hex-[Cys-(tMeBn(Bio-Ttds-Ttds-Ttds-Ttds-AET))-Pro-Pro-Thr-Gln-Phe-Cys]-OH] | – | – | 10 to 79.4 nM | 10 to 79.4 nM
CSCC[C@H](NC(C)=O)C(=O)N[C@H]1CSCc2cccc(c2)CSC[C@@H](C(=O)N[C@@H](CC(=O)O)C(=O)N[C@@H](Cc2c[nH]cn2)C(=O)N[C@@H](Cc2ccccc2)C(=O)N[C@@H](CCCNC(=N)N)C(=O)N[C@@H](CC(=O)O)C(N)=O)NC(=O)[C@H](Cc2ccccc2)NC(=O)[C@H](CCC(=O)O)NC(=O)[C@H]([C@@H](C)O)NC(=O)[C@@H]2CCCN2C(=O)[C@H]2CCCN2C1=O [3BP-3176, Ac-Met-[Cys(3MeBn)-pro-Pro-Thr-Glu-Phe-Cys]-Asp-His-Phe-Arg-Asp-NH2] (Ac-MC[dP]PTEFCDHFRD-NH2; linker 2-8 via mXylylene) | 100 to 794 nM | 100 to 794 nM | – | –
CCCCCC(=O)N[C@H]1CSCc2cccc(c2)CSC[C@@H](C(=O)NCc2ccc(C(=O)N[C@@H](CCCNC(=N)N)C(N)=O)cc2)NC(=O)[C@H](Cc2ccccc2)NC(=O)[C@H](CCC(=O)O)NC(=O)[C@H]([C@@H](C)O)NC(=O)[C@@H]2CCCN2C(=O)[C@@H]2CCCN2C1=O [3BP-3303, Hex-[Cys(3MeBn)-Pro-Pro-Thr-Glu-Phe-Cys]-Pamb-Arg-NH2] (Hexanoyl-CPPTEFC[4Amb]R-NH2; linker 1-7 via mXylylene) | < 10 nM | 10 to 79.4 nM | – | –
CCCC(NC(=O)CCC(=O)NCCCOCCOCCOCCCNC(=O)CN1CCN(CC(=O)O)CCN(CC(=O)O)CCN(CC(=O)O)CC1)C(=O)N[C@H]1CSCc2cc(CSCCNC(=O)CN3CCN(CC(=O)O)CCN(CC(=O)O)CCN(CC(=O)O)CC3)cc(c2)CSC[C@@H](C(=O)O)NC(=O)[C@H](Cc2ccccc2)NC(=O)[C@H](CCC(N)=O)NC(=O)[C@H]([C@@H](C)O)NC(=O)[C@@H]2CCCN2C(=O)[C@@H]2CCCN2C1=O (stereo partly drawn) [3BP-4386, DOTA-Ttds-Nle-[Cys(tMeBn(DOTA-AET))-Pro-Pro-Thr-Gln-Phe-Cys]-OH] | – | – | 10 to 79.4 nM | 10 to 79.4 nM

— patent US20220315554A1, “COMPOUNDS COMPRISING A […] LIGAND AND USE THEREOF” (priority 2019, published 2022)
